Type in all cases: biochemical
In test [1] the target is T1, recombinant human MAO-B (monoamine oxidase-B) (Homo sapiens, UniProt P27338).
T1 construct: purchased Sigma-Aldrich
T1 sequence (P27338 1-520): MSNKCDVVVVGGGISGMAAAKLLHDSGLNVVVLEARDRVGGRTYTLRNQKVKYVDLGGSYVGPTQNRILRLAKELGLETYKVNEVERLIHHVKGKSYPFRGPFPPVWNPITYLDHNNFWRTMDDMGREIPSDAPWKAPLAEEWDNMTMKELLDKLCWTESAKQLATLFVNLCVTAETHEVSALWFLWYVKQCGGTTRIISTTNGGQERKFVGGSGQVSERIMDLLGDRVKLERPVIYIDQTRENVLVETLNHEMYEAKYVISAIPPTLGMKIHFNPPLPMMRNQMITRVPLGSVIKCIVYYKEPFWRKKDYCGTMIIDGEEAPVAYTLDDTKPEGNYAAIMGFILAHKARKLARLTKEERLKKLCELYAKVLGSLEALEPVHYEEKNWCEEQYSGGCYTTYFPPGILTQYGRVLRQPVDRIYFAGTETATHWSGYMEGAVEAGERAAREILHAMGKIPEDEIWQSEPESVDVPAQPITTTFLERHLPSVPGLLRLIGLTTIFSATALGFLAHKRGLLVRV
In words: Activity on recombinant human MAO-B, method similar to VAP-1 assay, 1 mM benzylamine substrate. As to conditions: read-out: Inhibitory Activity (IC50, nM) MAO-B. A digest of the protocol: (§1)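 Amplex Red/HRP-coupled H2O2 fluorescence assay run as for VAP-1: enzyme in 50 mM sodium phosphate pH 7.4 preincubated with compound 30 min at 37 °C, then substrate (putrescine for DAO, benzylamine for MAO-B, tyramine for MAO-A) added with 200 uM Amplex Red, 1 U/mL HRP. Signal rate over 1-2 h; IC50 from 4-parameter logistic fit.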

The target in test [2] is T2, recombinant human VAP-1 (Homo sapiens, UniProt Q16853).
T2 construct: purchased R&D systems
T2 sequence (Q16853 1-763): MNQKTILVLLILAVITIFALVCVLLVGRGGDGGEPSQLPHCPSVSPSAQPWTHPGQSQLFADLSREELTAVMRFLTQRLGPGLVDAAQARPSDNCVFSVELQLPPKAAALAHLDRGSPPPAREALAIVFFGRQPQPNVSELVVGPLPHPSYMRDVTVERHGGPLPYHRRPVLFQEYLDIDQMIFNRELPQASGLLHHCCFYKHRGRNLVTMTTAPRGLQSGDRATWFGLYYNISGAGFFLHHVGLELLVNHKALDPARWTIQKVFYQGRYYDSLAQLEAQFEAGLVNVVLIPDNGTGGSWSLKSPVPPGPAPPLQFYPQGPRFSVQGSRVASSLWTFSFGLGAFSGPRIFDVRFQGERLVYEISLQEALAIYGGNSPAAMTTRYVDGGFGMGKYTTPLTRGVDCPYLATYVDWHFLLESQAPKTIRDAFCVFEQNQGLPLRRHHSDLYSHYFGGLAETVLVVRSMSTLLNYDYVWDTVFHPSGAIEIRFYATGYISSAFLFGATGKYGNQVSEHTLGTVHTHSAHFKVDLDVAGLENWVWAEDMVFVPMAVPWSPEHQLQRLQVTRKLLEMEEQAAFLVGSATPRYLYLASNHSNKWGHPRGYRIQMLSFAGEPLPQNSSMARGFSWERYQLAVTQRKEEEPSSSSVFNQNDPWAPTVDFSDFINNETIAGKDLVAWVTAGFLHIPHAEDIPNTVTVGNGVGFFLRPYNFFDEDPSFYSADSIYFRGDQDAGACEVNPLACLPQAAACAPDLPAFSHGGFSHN
In words: Activity on recombinant human VAP-1, HRP-coupled Amplex Red hydrogen peroxide assay, benzylamine substrate. Conditions: 30 min incubation at 37° C., 1 mM benzylamine, read-out: Inhibitory Activity (IC50, nM) human VAP-1. In outline: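 Recombinant human VAP-1 in 50 mM sodium phosphate pH 7.4 preincubated with compound for 30 min at 37 °C, then 1 mM benzylamine, 200 uM Amplex Red and 1 U/mL HRP added. Resorufin fluorescence (ex 544/em 590 nm) followed over 1-2 h; % signal-rate decrease vs DMSO control, 8-point 4-parameter fit for IC50.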

Test [3] has as its target T3, recombinant human MAO-A (monoamine oxidase-A) (Homo sapiens, UniProt P21397).
T3 construct: purchased Sigma-Aldrich
T3 sequence (P21397 1-527): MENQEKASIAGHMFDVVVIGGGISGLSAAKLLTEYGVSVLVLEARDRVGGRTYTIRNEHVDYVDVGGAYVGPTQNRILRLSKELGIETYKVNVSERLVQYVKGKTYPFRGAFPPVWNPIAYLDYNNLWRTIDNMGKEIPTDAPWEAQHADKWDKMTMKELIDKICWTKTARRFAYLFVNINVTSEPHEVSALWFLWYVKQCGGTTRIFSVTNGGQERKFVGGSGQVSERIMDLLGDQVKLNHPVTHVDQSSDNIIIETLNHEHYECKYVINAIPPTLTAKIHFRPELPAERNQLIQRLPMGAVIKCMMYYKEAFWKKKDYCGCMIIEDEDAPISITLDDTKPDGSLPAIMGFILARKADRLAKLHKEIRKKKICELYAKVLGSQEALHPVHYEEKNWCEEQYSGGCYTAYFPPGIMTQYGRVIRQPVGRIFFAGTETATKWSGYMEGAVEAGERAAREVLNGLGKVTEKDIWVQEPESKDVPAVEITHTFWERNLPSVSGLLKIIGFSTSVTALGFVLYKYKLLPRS
In words: Activity on recombinant human MAO-A, method similar to VAP-1 assay, 0.5 mM tyramine substrate. Conditions: read-out: Inhibitory Activity (IC50, nM) MAO-A. A digest of the protocol: as §1

In test [4] the target is T4, recombinant human DAO (diamine oxidase) (Homo sapiens, UniProt P19801).
T4 construct: purchased R&D systems
T4 sequence (P19801 20-751): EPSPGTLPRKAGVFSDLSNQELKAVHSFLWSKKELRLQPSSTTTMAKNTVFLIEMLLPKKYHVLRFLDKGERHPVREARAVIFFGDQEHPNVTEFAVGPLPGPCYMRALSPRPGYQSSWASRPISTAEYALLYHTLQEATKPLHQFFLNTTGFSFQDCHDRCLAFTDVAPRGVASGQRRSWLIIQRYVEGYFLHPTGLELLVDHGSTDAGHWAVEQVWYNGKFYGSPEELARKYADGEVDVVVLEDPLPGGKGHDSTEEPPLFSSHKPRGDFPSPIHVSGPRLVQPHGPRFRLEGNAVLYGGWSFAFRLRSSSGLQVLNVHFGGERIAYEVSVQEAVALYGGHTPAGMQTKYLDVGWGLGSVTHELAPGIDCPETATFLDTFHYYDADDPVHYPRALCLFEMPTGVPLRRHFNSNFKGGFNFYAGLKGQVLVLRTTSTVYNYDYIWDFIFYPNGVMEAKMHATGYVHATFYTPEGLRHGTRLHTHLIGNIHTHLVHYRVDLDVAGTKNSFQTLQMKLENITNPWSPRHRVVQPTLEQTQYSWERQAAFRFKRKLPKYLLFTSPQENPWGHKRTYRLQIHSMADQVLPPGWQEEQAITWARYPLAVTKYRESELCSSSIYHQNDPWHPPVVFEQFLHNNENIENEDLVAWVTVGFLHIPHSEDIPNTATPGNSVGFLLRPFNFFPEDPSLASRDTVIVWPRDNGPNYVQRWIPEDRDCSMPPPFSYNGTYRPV
In words: Activity on recombinant human DAO, method similar to VAP-1 assay, 1 mM putrescine substrate. Conditions: read-out: Inhibitory Activity (IC50, nM) DAO. A digest of the protocol:
as §1

Where a name gives a salt, the structure may show the parent alone. Where only a bound is given, the exact number is not on record here.

Data on 12 compounds can be found in patent US11091479B2, “Triazolopyridin-3-ones or their salts and pharmaceutical compositions comprising the same” (YUHAN CORPORATION, priority 2018, dated 2021).

`NC/C(=C\F)Cn1nc2cc(-c3ccc(-c4cnon4)cc3)ccn2c1=O` [Example 27, 2-[(2E)-2-(aminomethyl)-3-fluoroprop-2-en-1-yl]-7-[4-(1,2,5-oxadiazol-3-yl)phenyl][1,2,4]triazolo[4,3-a]pyridin-3(2H)-one hydrochloride]: the IC50 (usually the concentration that gives 50% inhibition) in test [1] worked out at 67 nM; in test [2] it was 0.6 nM; in test [3], 1450 nM; in test [4], 1.8 nM.
For `NC/C(=C\F)Cn1nc2cc(-c3ccc4c(c3)NC(=O)OC4)ccn2c1=O` [Example 41, 7-[2-[(2E)-2-(aminomethyl)-3-fluoroprop-2-en-1-yl]-3-oxo-2,3-dihydro[1,2,4]triazolo[4,3-a]pyridin-7-yl]-1,4-dihydro-2H-3,1-benzoxazin-2-one hydrochloride], the IC50 in test [1] is 730 nM; in test [2], 0.3 nM; in test [3], 6800 nM; in test [4] it was 1.3 nM.
For `NCC(Cn1nc2cc(-c3ccc(C(F)(F)F)nc3)ccn2c1=O)=C(F)F` [Example 50, 2-[2-(aminomethyl)-3,3-difluoro-allyl]-7-[6-(trifluoromethyl)-3-pyridyl]-[1,2,4]triazolo[4,3-a]pyridin-3-one trifluoroacetate] the same measures were 100 nM, 0.2 nM, over 100000 nM and 3 nM.
In the case of `CS(=O)(=O)c1ccc(-c2ccn3c(=O)n(CC(CN)=C(F)F)nc3c2)cc1` [Example 48, 2-[2-(aminomethyl)-3,3-difluoro-allyl]-7-(4-methylsulfonylphenyl)-[1,2,4]triazolo[4,3-a]pyridin-3-one trifluoroacetate], the half-maximal inhibitory concentration (IC50) was 800 nM in test [1], 0.1 nM in test [2], over 100000 nM in test [3] and 100 nM in test [4].
For the compound `NCC(Cn1nc2cccc(Br)n2c1=O)=C(F)F` [Example 45, 2-[2-(aminomethyl)-3,3-difluoro-allyl]-5-bromo-[1,2,4]triazolo[4,3-a]pyridin-3-one trifluoroacetate], the IC50 was over 100000 nM in test [1], 24 nM in test [2], over 100000 nM in test [3] and 11000 nM in test [4].
For `NC/C(=C\F)Cn1nc2cc(-c3ccc4nonc4c3)ccn2c1=O` [Example 38, 2-[(2E)-2-(aminomethyl)-3-fluoroprop-2-en-1-yl]-7-(2,1,3-benzoxadiazol-5-yl)[1,2,4]triazolo[4,3-a]pyridin-3(2H)-one hydrochloride], the IC50 in test [1] is under 10 nM; in test [2] it was 0.2 nM; in test [3], 3500 nM; in test [4], 0.4 nM.
For the compound `CS(=O)(=O)c1ccc(-c2ccc3nn(C/C(=C/F)CN)c(=O)n3c2)cc1` [Example 3, 2-[(2E)-2-(aminomethyl)-3-fluoroprop-2-en-1-yl]-6-[4-(methylsulfonyl)phenyl][1,2,4]triazolo[4,3-a]pyridin-3(2H)-one trifluoroacetate], the IC50 in test [1] is 231 nM; in test [2], 3.6 nM; in test [3] it was over 100000 nM; in test [4], under 100 nM.
Take `NC/C(=C\F)Cn1nc2cc(-c3ccc(C(F)(F)F)nc3)ccn2c1=O` [Example 30, 2-[(2E)-2-(aminomethyl)-3-fluoroprop-2-en-1-yl]-7-[6-(trifluoromethyl)pyridin-3-yl][1,2,4]triazolo[4,3-a]pyridin-3(2H)-one hydrochloride]: the half-maximal inhibitory concentration (IC50) was 8.4 nM in test [1], 0.3 nM in test [2], 68000 nM in test [3] and 1.1 nM in test [4].
The like results for `CC(=O)Nc1ccc(-c2ccc3nn(C/C(=C/F)CN)c(=O)n3c2)cc1` [Example 2, N-[4-[2-[(2E)-2-(aminomethyl)-3-fluoroprop-2-en-1-yl]-3-oxo-2,3-dihydro[1,2,4]triazolo[4,3-a]pyridin-6-yl]phenyl]acetamide trifluoroacetate] were, in that order, 1780 nM, 6.2 nM, 68400 nM and under 100 nM.
For `NCC(Cn1nc2cc(C#Cc3cnc4c(c3)NCCO4)ccn2c1=O)=C(F)F` [Example 60, 2-[2-(aminomethyl)-3,3-difluoro-allyl]-7-[2-(2,3-dihydro-1H-pyrido[2,3-b][1,4]oxazin-7-yl)ethynyl]-[1,2,4]triazolo[4,3-a]pyridin-3-one ditrifluoroacetate] the same measures were over 100000 nM, 0.4 nM, over 100000 nM and 220 nM.
With `CN1CCOc2cc(-c3ccn4c(=O)n(C/C(=C/F)CN)nc4c3)ccc21` [Example 44, 2-[(2E)-2-(aminomethyl)-3-fluoroprop-2-en-1-yl]-7-(4-methyl-3,4-dihydro-2H-1,4-benzoxazin-7-yl)[1,2,4]triazolo[4,3-a]pyridin-3(2H)-one hydrochloride], the IC50 is under 10 nM in test [1], 1 nM in test [2], over 100000 nM in test [3] and 400 nM in test [4].
As for `NC/C(=C\F)Cn1nc2cc(-c3ccc4cn[nH]c4c3)ccn2c1=O` [Example 37, 2-[(2E)-2-(aminomethyl)-3-fluoroprop-2-en-1-yl]-7-(1H-indazol-6-yl)[1,2,4]triazolo[4,a]pyridin-3(2H)-one hydrochloride], the IC50 amounted to 190 nM in test [1], 0.1 nM in test [2], 26000 nM in test [3] and 0.3 nM in test [4].
